Here are results for 15 molecules from ChEMBL document CHEMBL2331254, “Pyrrolopyrimidine inhibitors of DNA gyrase B (GyrB) and topoisomerase IV (ParE), Part II: development of inhibitors with broad spectrum, Gram-negative antibacterial activity” (Bioorg Med Chem Lett, 2013).

Assay [1] concerns Staphylococcus aureus. In words: Antibacterial activity against Staphylococcus aureus ATCC 13709 by broth microdilution method. It counts as functional.
A short description of assay [2]: Inhibition of Francisella tularensis GyrB assessed as release of inorganic phosphate from ATP hydrolysis after 30 mins by coupled spectrophotometric assay.
Assay [3] in a line: Inhibition of Francisella tularensis parE assessed as release of inorganic phosphate from ATP hydrolysis after 30 mins by coupled spectrophotometric assay.
Assay [4] has as its system Escherichia coli. Kind of assay: Antibacterial activity against Escherichia coli BW25113 harboring deltatolC by broth microdilution method. Format: functional.
For assay [5], the system named is Escherichia coli. Kind of assay: Antibacterial activity against permeabilized Escherichia coli IBAS849 by broth microdilution method. Format: functional.
For assay [6], the system named is Escherichia coli. Kind of assay: Antibacterial activity against wild type Escherichia coli ATCC 25922 by broth microdilution method. It counts as functional. On the technique in general: Dilution methods test growth across graded concentrations, often in twofold steps.
Assay [7] is described as follows: Inhibition of Escherichia coli parE assessed as release of inorganic phosphate from ATP hydrolysis after 30 mins by coupled spectrophotometric assay.
The nature of assay [8]: Inhibition of Escherichia coli GyrB assessed as release of inorganic phosphate from ATP hydrolysis after 30 mins by coupled spectrophotometric assay.
The next assay relates to Streptococcus pneumoniae. In words: Antibacterial activity against Streptococcus pneumoniae ATCC 51916 by broth microdilution method. It counts as functional.
The subject of a further assay is Haemophilus influenzae. In words: Antibacterial activity against Haemophilus influenzae ATCC 49247 by broth microdilution method. Format: functional.
The test system of a further assay is Acinetobacter baumannii. In words: Antibacterial activity against Acinetobacter baumannii ATCC 19606 by broth microdilution method. Format: functional. The note with it: ATCC 19606 = CIP 70.34 = JCM 6841.
In the next assay the test system is Pseudomonas aeruginosa. In words: Antibacterial activity against Pseudomonas aeruginosa PAO1 by broth microdilution method. Format: functional.
In assay [9] the test system is Staphylococcus aureus. Kind of assay: Antibacterial activity against Staphylococcus aureus ATCC 13709 by broth microdilution method in presence of 20% mouse serum. It counts as functional.
Assay [10] relates to Escherichia coli. Kind of assay: Antibacterial activity against wild type Escherichia coli ATCC 25922 by broth microdilution method in presence of 20% mouse serum. It counts as functional.
In another assay the test system is Klebsiella pneumoniae. Kind of assay: Antibacterial activity against Klebsiella pneumoniae ATCC 700603 by broth microdilution method. Format: functional.

One may read the Ki as a dissociation constant, usually derived from enzyme kinetics or from competition with a known ligand.

SMILES strings stand for the structures. ≈ marks a conversion by molar mass, not a printed value.

Turning to `CCc1[nH]c2nc(Sc3cnc4nccnc4c3)nc(N3CC(N)C3)c2c1Cl`, the MIC amounted to 1 µg/mL (≈ 2.42 µM) in the assay with Staphylococcus aureus [1], 4 µg/mL (≈ 9.69 µM) against Escherichia coli [4], 8 µg/mL (≈ 19.4 µM) against Escherichia coli [5] and 64 µg/mL (≈ 155 µM) in the assay on Escherichia coli [6]. For the same molecule, the Ki in [2] was determined as 7 nM; in [3] it was 5 nM.
As for `CCc1[nH]c2nc(Sc3ccc4c(c3)C(=O)NC4)nc(N3C[C@@H]4[C@@H](N)[C@@H]4C3)c2c1Cl`, the MIC stood at 0.5 µg/mL (≈ 1.13 µM) against Staphylococcus aureus [1], 1 µg/mL (≈ 2.27 µM) in the assay with Escherichia coli [4], 4 µg/mL (≈ 9.07 µM) with Escherichia coli [5] and 32 µg/mL (≈ 72.6 µM) against Escherichia coli [6]. The Ki is 8 nM in assay [7] and 4 nM in assay [8].
For the molecule `CCc1[nH]c2nc(Oc3cncnc3)nc(N3C[C@@H]4[C@@H](N)[C@@H]4C3)c2c1Cl`, the MIC with Staphylococcus aureus [1] turned out to be 1 µg/mL (≈ 2.69 µM); with Escherichia coli [4], 2 µg/mL (≈ 5.38 µM); against Streptococcus pneumoniae it was 2 µg/mL (≈ 5.38 µM); against Haemophilus influenzae, 4 µg/mL (≈ 10.8 µM); against Acinetobacter baumannii it was 16 µg/mL (≈ 43 µM); against Pseudomonas aeruginosa, 32 µg/mL (≈ 86.1 µM). Further, the MIC worked out at 2 µg/mL in the assay with Staphylococcus aureus [9]; 2 µg/mL in the assay on Escherichia coli [10]; 1 µg/mL (≈ 2.69 µM) with Escherichia coli [5]; 64 µg/mL (≈ 172 µM) against Klebsiella pneumoniae; 4 µg/mL (≈ 10.8 µM) against Escherichia coli [6]. The Ki was < 0.3 nM in assay [2], 1.8 nM in assay [3], 3.4 nM in assay [7] and 0.4 nM in assay [8].
Consider `CCc1[nH]c2nc(Oc3cnc4cccnc4c3)nc(N3C[C@@H]4[C@@H](N)[C@@H]4C3)c2c1Cl`, for which the MIC in the assay on Staphylococcus aureus [1] is ≤ 0.06 µg/mL; against Escherichia coli [4] it was ≤ 0.06 µg/mL; with Streptococcus pneumoniae, ≤ 0.06 µg/mL; against Haemophilus influenzae it was 1 µg/mL (≈ 2.37 µM); with Acinetobacter baumannii it was 4 µg/mL (≈ 9.48 µM); against Pseudomonas aeruginosa, 8 µg/mL (≈ 19 µM). The MIC with Staphylococcus aureus [9] amounted to 0.13 µg/mL; in the assay on Escherichia coli [10] it was 4 µg/mL; in the assay with Escherichia coli [5], 1 µg/mL (≈ 2.37 µM); in the assay on Klebsiella pneumoniae, 32 µg/mL (≈ 75.8 µM); in the assay with Escherichia coli [6], 4 µg/mL (≈ 9.48 µM). The Ki was 0.6 nM in assay [3], 0.9 nM in assay [7] and < 0.3 nM in [8].
In the case of `CCc1[nH]c2nc(Oc3cnc4ccc[n+]([O-])c4c3)nc(N3CC[C@@H](N)C3)c2c1Cl`, the MIC against Staphylococcus aureus [1] was found to be 0.13 µg/mL (≈ 0.305 µM); against Escherichia coli [4], 0.5 µg/mL (≈ 1.17 µM); against Streptococcus pneumoniae, 1 µg/mL (≈ 2.35 µM); against Haemophilus influenzae, 4 µg/mL (≈ 9.39 µM); against Acinetobacter baumannii it was 8 µg/mL (≈ 18.8 µM); with Pseudomonas aeruginosa, 16 µg/mL (≈ 37.6 µM). Further, the MIC in the assay on Staphylococcus aureus [9] turned out to be 0.13 µg/mL; with Escherichia coli [10], 2 µg/mL; in the assay with Escherichia coli [5], 1 µg/mL (≈ 2.35 µM); against Klebsiella pneumoniae, 32 µg/mL (≈ 75.1 µM); in the assay with Escherichia coli [6] it was 4 µg/mL (≈ 9.39 µM). The Ki in assay [3] is 1.1 nM; in assay [7], 4.6 nM; in assay [8], < 0.3 nM.
Turning to `CCc1[nH]c2nc(Sc3cnc4nccnc4c3)nc(N3C[C@@H]4[C@@H](N)[C@@H]4C3)c2c1Cl`, the MIC came out at 0.13 µg/mL (≈ 0.296 µM) in the assay with Staphylococcus aureus [1], 0.5 µg/mL (≈ 1.14 µM) with Escherichia coli [4], 0.5 µg/mL (≈ 1.14 µM) in the assay with Escherichia coli [5] and 8 µg/mL (≈ 18.2 µM) in the assay on Escherichia coli [6]. In addition, the Ki in assay [2] was < 1 nM; in assay [7], 1 nM; in assay [8], < 0.5 nM.
For the molecule `CCc1[nH]c2nc(Sc3ccc4nccnc4c3)nc(N3C[C@@H]4[C@@H](N)[C@@H]4C3)c2c1Cl`, the MIC is ≤ 0.13 µg/mL against Staphylococcus aureus [1], 0.25 µg/mL (≈ 0.571 µM) with Escherichia coli [4], 0.25 µg/mL (≈ 0.571 µM) against Escherichia coli [5] and > 64 µg/mL with Escherichia coli [6]. Also, the values for the Ki in assay [7] and in assay [8] were 1 nM and < 0.5 nM, respectively.
In the case of `CCc1[nH]c2nc(Sc3cnc4cccnc4c3)nc(N3C[C@@H]4[C@@H](N)[C@@H]4C3)c2c1Cl`, the MIC in the assay with Staphylococcus aureus [1] is ≤ 0.06 µg/mL; with Escherichia coli [4] it was 0.25 µg/mL (≈ 0.571 µM); in the assay on Streptococcus pneumoniae, 0.13 µg/mL (≈ 0.297 µM); in the assay on Haemophilus influenzae it was 4 µg/mL (≈ 9.13 µM); against Acinetobacter baumannii, 8 µg/mL (≈ 18.3 µM); against Pseudomonas aeruginosa, 8 µg/mL (≈ 18.3 µM). In addition, the MIC in the assay on Staphylococcus aureus [9] was 0.5 µg/mL; with Escherichia coli [10], 8 µg/mL; against Escherichia coli [5] it was 1 µg/mL (≈ 2.28 µM); against Klebsiella pneumoniae, > 64 µg/mL; against Escherichia coli [6], 4 µg/mL (≈ 9.13 µM). For the same molecule, the Ki is 0.6 nM in assay [3], < 1 nM in assay [7] and < 0.3 nM in [8].
On to `CCc1[nH]c2nc(Sc3ccc4cccnc4c3)nc(N3C[C@@H]4[C@@H](N)[C@@H]4C3)c2c1Cl`, for which the MIC with Staphylococcus aureus [1] was 0.25 µg/mL (≈ 0.572 µM); in the assay with Escherichia coli [4] it was 1 µg/mL (≈ 2.29 µM); in the assay with Escherichia coli [5], 4 µg/mL (≈ 9.15 µM); with Escherichia coli [6], > 64 µg/mL. The Ki in [7] amounted to 6 nM; in assay [8], 1 nM.
For `CCc1[nH]c2nc(Sc3ccc4ccc[n+]([O-])c4c3)nc(N3C[C@@H]4[C@@H](N)[C@@H]4C3)c2c1Cl`, the MIC against Staphylococcus aureus [1] is ≤ 0.13 µg/mL; in the assay with Escherichia coli [4], 0.25 µg/mL (≈ 0.552 µM); with Escherichia coli [5], 1 µg/mL (≈ 2.21 µM); against Escherichia coli [6] it was 8 µg/mL (≈ 17.7 µM). Besides, the results for the Ki in assay [7] and in assay [8] were < 1 nM and < 0.5 nM, respectively.
Take `CCc1[nH]c2nc(Sc3cnc4ccc[n+]([O-])c4c3)nc(N3C[C@@H]4[C@@H](N)[C@@H]4C3)c2c1Cl`: the MIC in the assay on Staphylococcus aureus [1] was determined as 0.03 µg/mL (≈ 0.0661 µM); against Escherichia coli [4], 0.13 µg/mL (≈ 0.286 µM); in the assay with Streptococcus pneumoniae, 0.25 µg/mL (≈ 0.551 µM); in the assay on Haemophilus influenzae, 2 µg/mL (≈ 4.41 µM); against Acinetobacter baumannii, 4 µg/mL (≈ 8.81 µM); with Pseudomonas aeruginosa, 4 µg/mL (≈ 8.81 µM). For the same molecule, the MIC with Staphylococcus aureus [9] was 0.13 µg/mL; in the assay on Escherichia coli [10] it was 4 µg/mL; against Escherichia coli [5] it was 0.13 µg/mL (≈ 0.286 µM); in the assay with Klebsiella pneumoniae, 32 µg/mL (≈ 70.5 µM); in the assay with Escherichia coli [6] it was 2 µg/mL (≈ 4.41 µM). Further, the results for the Ki in [3], in assay [7] and in [8] were 2.5 nM, 1.7 nM and < 0.3 nM, respectively.
As for `CCc1[nH]c2nc(Sc3cnc4c(c3)c(=O)ncn4C)nc(N3C[C@@H]4[C@@H](N)[C@@H]4C3)c2c1Cl`, the MIC with Staphylococcus aureus [1] is 0.5 µg/mL (≈ 1.07 µM); against Escherichia coli [4], 2 µg/mL (≈ 4.26 µM); against Escherichia coli [5] it was 2 µg/mL (≈ 4.26 µM); against Escherichia coli [6] it was 32 µg/mL (≈ 68.2 µM). Besides, the Ki in assay [7] is 3 nM; in assay [8], 5 nM.
Consider `CCc1[nH]c2nc(Sc3cccnc3)nc(NC[C@H](C)O)c2c1Cl`, for which the MIC is 4 µg/mL (≈ 11 µM) in the assay with Staphylococcus aureus [1], 32 µg/mL (≈ 87.9 µM) against Escherichia coli [5] and > 64 µg/mL with Escherichia coli [6]. The results for the Ki in assay [2] and in assay [3] were 171 nM and 173 nM, respectively.
On to `CCc1[nH]c2nc(Sc3cnc4nccnc4c3)nc(NC[C@H](C)O)c2c1Cl`, for which the MIC against Staphylococcus aureus [1] is 1 µg/mL (≈ 2.4 µM); against Escherichia coli [4], 4 µg/mL (≈ 9.62 µM); in the assay with Escherichia coli [5] it was 8 µg/mL (≈ 19.2 µM); with Escherichia coli [6], > 64 µg/mL. Moreover, the Ki was 43 nM in [2] and 23 nM in assay [3].
Regarding `CCc1[nH]c2nc(Sc3cnc4nccnc4c3)nc(N3CC(O)C3)c2c1Cl`, the MIC is 0.25 µg/mL (≈ 0.604 µM) in the assay with Staphylococcus aureus [1], 2 µg/mL (≈ 4.83 µM) in the assay with Escherichia coli [4], 4 µg/mL (≈ 9.66 µM) against Escherichia coli [5] and > 64 µg/mL in the assay with Escherichia coli [6]. The Ki in [2] was 7 nM; in assay [3], 5 nM.
